Experimental data taken from the supplement of paper PMC10307832.

The cell lines below were run with CC(C)CCN1c2nc(Nc3cc(F)c(O)c(F)c3)ncc2N(C)C(=O)C1C [BI-D1870] + CCNC(=O)c1noc(-c2cc(C(C)C)c(O)cc2O)c1-c1ccc(CN2CCOCC2)cc1 [Luminespib] (partner 0.01 µM) (assay: relative viability (nuclei count vs DMSO), 5 days (fraction); higher = more cells survive). Details: first compound 4 µM.
How it was run: (§1)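 Relative viability was taken as the ratio of nuclei in treated wells to nuclei in vehicle wells. Lung cancer cell lines in 1536-well plates received compounds by pin tool one day after seeding, either one drug alone or a fixed anchor-drug dose plus five library-drug doses (not always all listed) in √10 steps. Nuclei were counted on 4× images after 5 days of treatment, and values are medians of duplicate plates.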

| Cell Line | relative viability |
| --- | --- |
| NCI-H1755 | 0.316 |

What follows are cell lines tested with CC(C)CCN1c2nc(Nc3cc(F)c(O)c(F)c3)ncc2N(C)C(=O)C1C [BI-D1870] + O=C(CCCCCCC(=O)Nc1ccccc1)NO [Vorinostat] (partner 1 µM) in the same assay as above. Details: first compound 0.04 µM.
How it was run: as §1

| Cell Line | relative viability |
| --- | --- |
| NCI-H2405 | 1.04 |
| HOP-62 | 0.737 |
| NCI-H522 | 1.02 |
| LU99A | 0.584 |
| BEN | 0.538 |
| HARA | 0.542 |
| SW 900 | 0.504 |
| NCI-H322M | 0.919 |
| LCLC-97TM1 | 1 |
| NCI-H2009 | 0.776 |
| A-427 | 0.917 |
| NCI-H441 | 0.686 |
| NCI-H661 | 0.815 |
| NCI-H1734 | 0.805 |
| NCI-H460 | 0.922 |
| NCI-H2347 | 0.524 |

| Cell Line | relative viability |
| --- | --- |
| SK-LU-1 | 0.823 |
| NCI-H1395 | 0.774 |
| 201T | 1.01 |
| NCI-H1915 | 0.55 |
| HCC-827 | 0.771 |
| LXF-289 | 0.681 |
| NCI-H23 | 0.555 |
| NCI-H647 | 0.666 |
| CAL-12T | 1.07 |
| NCI-H1651 | 0.557 |
| EPLC-272H | 0.523 |
| NCI-H2228 | 0.889 |
| NCI-H1355 | 0.74 |
| NCI-H3122 | 1.05 |
| NCI-H1437 | 0.809 |
| NCI-H1755 | 0.938 |

Same assay, conditions: first compound 0.1265 µM

| Cell Line | relative viability |
| --- | --- |
| NCI-H2405 | 1.03 |
| HOP-62 | 0.669 |
| NCI-H522 | 1.09 |
| LU99A | 0.422 |
| BEN | 0.504 |
| HARA | 0.405 |
| SW 900 | 0.537 |
| NCI-H322M | 0.879 |
| LCLC-97TM1 | 0.684 |
| NCI-H2009 | 0.629 |
| A-427 | 0.843 |
| NCI-H441 | 0.794 |
| NCI-H661 | 0.806 |
| NCI-H1734 | 0.744 |
| NCI-H460 | 0.643 |
| NCI-H2347 | 0.677 |

| Cell Line | relative viability |
| --- | --- |
| SK-LU-1 | 0.615 |
| NCI-H1395 | 0.641 |
| 201T | 0.91 |
| NCI-H1915 | 0.484 |
| HCC-827 | 0.846 |
| LXF-289 | 0.738 |
| NCI-H23 | 0.619 |
| NCI-H647 | 0.346 |
| CAL-12T | 0.675 |
| NCI-H1651 | 0.536 |
| EPLC-272H | 0.663 |
| NCI-H2228 | 0.512 |
| NCI-H1355 | 0.613 |
| NCI-H3122 | 0.633 |
| NCI-H1437 | 0.747 |
| NCI-H1755 | 0.738 |

Same assay, conditions: first compound 0.4 µM

| Cell Line | relative viability |
| --- | --- |
| NCI-H2405 | 1 |
| HOP-62 | 0.602 |
| NCI-H522 | 1.01 |
| LU99A | 0.412 |
| BEN | 0.595 |
| HARA | 0.641 |
| SW 900 | 0.582 |
| NCI-H322M | 0.76 |
| LCLC-97TM1 | 0.722 |
| NCI-H2009 | 0.76 |
| A-427 | 0.817 |
| NCI-H441 | 0.731 |
| NCI-H661 | 0.764 |
| NCI-H1734 | 0.78 |
